Reference: US12226401B2, “Molecular genetic approach to treatment and diagnosis of alcohol and drug dependence” (priority 2010, dated 2025)
Like-named read-outs stand apart in the source and are kept apart here.

Key:
[1] = dose of 50 mg/day; cited from earlier work
[2] = tested on: methamphetamine dependent subjects; assay type: in vivo, human
Experimental: Methods—The study was conducted at 8 sites, 140 subjects consented, screened for study eligibility and met DSM-IV criteria for methamphetamine dependence. Subjects were randomized to topiramate or placebo at 50 mg, escalating to 200 mg topiramate daily over weeks 1-5, and 200 mg daily over weeks 6-12. The primary outcome measure was abstinence from methamphetamine during study weeks 6 through 12. Methamphetamine use was determined using qualitative urine testing at a central laboratory. The primary outcome was analyzed using a Generalized Estimating Equation (GEE) model during weeks 6 through 12. Secondary outcomes included use reduction compared to baseline, relapse rate for subjects with negative urine at randomization, and craving. Blood samples were collected for genetic markers to examine the effects of topiramate on gene expression and to correlate genetic subtypes with response to treatment. RNA samples were collected from whole blood for 50 topiramate- and 49 placebo-treated individuals at baseline and weeks 8 and 12. Genome-wide expression profiles between positive and negative responders for Weeks 8 and 12 from placebo- and topiramate-treated groups were compared.

[3] = cited from earlier work

Row | SMILES | Individuals in alcohol trials unable to tolerate naltrexone [1] | Treatment effect on primary outcome variable (abstinence from methamphetamine, weeks 6-12) ([2]; all subjects) | Treatment effect, exploratory analysis ([2]; subjects (n=26) with negative urine prior to randomization, p=0.02) | Treatment effect, exploratory analysis ([2]; subjects (n=35) whose baseline use was <18 days out of previous 30, p=0.03) | Cognitive impairment reported by individuals who take topiramate ([3]; general population) [%] | Occurrence rate of cognitive impairment ([3]; substance abuse field)
1 | Cl.O=C1CC[C@@]2(O)[C@H]3Cc4ccc(O)c5c4[C@@]2(CCN3CC2CC2)[C@H]1O5 [naltrexone, 17-(Cyclopropylmethyl)-4,5a-epoxy-3,14-dihydroxymorphinan-6-one hydrochloride] | about 15% | – | – | – | – | –
2 | CC1(C)O[C@@H]2[C@@H](CO[C@@]3(COS(N)(=O)=O)OC(C)(C)O[C@@H]23)O1 [topiramate, 2,3:4,5-Bis-O-(1-methylethylidene)-beta-D-fructopyranose sulfamate] | – | no significant treatment effect | significant treatment effect | significant treatment effect | 2.4 | about 18.7%
